Holding throughout (format): functional, cell-based
Common to all, as to details: Homo sapiens

Assay [1] concerns HUVEC. As to the kind of experiment: Ability to block bFGF-induced vessel growth in the type 1 collagen matrix at 5 uM.
Assay [2] deals with HUVEC. In words: Ability to block bFGF-induced vessel growth in the type 1 collagen matrix at 500 nM.
Assay [3] has as its system HUVEC. As to the kind of experiment: Increase of ubiquitinated protein level in TNF-alpha-treated HUVEC at 5 uM.
The subject of assay [4] is HUVEC. As to the kind of experiment: Ability to block bFGF-induced vessel growth in the type 1 collagen matrix at 1 uM.

The source of these data is ChEMBL document CHEMBL1147689, “Development of withaferin A analogs as probes of angiogenesis” (Bioorg Med Chem Lett, 2006).

Each structure is given as a SMILES string. Calls of active or inactive are those of the source. The calls are words filed in the database; no cut-off is given here.

On to `CC1=C(COC(=O)CNC(=O)CCCCCNC(=O)CCCCCNC(=O)CCCC[C@@H]2SCC3NC(=O)NC32)C(=O)OC([C@@H](C)C2CCC3C4C[C@H]5O[C@]56[C@@H](O)C=CC(=O)[C@]6(C)C4CC[C@@]32C)C1` (stereo not given in full), for which the outcome in the assay with HUVEC [1] and with HUVEC [3] was Active. Further, the outcome in the assay with HUVEC [2] was inactive. Regarding `CC1=C(CO)C(=O)OC([C@@H](C)C2CCC3C4C(CC[C@@]32C)[C@@]2(C)C(=O)C=CC[C@]2(O)[C@H]2O[C@@H]42)C1` (stereo not given in full), the result in the assay on HUVEC [1] was inactive. As for `CC1=C(CO)C(=O)O[C@@H]([C@@H](C)[C@H]2CC[C@H]3[C@@H]4C[C@H]5O[C@]56[C@@H](O)C=CC(=O)[C@]6(C)[C@H]4CC[C@]23C)C1`, the result with HUVEC [4] was Active.
